# Experimental data reported in ChEMBL document CHEMBL1201862, “PubChem BioAssay data set” (2004).
# Activity calls are given as the source filed them.
# Key:
# Format in all cases: functional
# [1] = biological target: T1, Sentrin-specific protease 8 (Homo sapiens, UniProt Q96LD8);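 also: luminescence read-out of SENP8 inhibition, dose-response confirmation following an ultra-high-throughput screen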
# T1 sequence (Q96LD8 whole entry): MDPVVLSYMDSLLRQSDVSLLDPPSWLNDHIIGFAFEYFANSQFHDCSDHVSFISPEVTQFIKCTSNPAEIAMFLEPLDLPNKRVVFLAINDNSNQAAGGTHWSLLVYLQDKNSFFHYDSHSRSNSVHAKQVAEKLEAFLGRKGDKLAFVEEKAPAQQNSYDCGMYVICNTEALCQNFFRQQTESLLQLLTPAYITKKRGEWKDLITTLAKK
# [2] = biological target: T2, Orexin/Hypocretin receptor type 1 (Homo sapiens, UniProt O43613); test: Fluorescence-based cell-based high throughput dose response assay for antagonists of the orexin 1 receptor (OX1R; HCRTR1). [Related pubchem assays (depositor defined):AID434989, AID435008, AID463079, AID485270, AID492963, AID492964, AID492965, AID493232, AID504717, AID504718]
# T2 sequence (O43613 whole entry): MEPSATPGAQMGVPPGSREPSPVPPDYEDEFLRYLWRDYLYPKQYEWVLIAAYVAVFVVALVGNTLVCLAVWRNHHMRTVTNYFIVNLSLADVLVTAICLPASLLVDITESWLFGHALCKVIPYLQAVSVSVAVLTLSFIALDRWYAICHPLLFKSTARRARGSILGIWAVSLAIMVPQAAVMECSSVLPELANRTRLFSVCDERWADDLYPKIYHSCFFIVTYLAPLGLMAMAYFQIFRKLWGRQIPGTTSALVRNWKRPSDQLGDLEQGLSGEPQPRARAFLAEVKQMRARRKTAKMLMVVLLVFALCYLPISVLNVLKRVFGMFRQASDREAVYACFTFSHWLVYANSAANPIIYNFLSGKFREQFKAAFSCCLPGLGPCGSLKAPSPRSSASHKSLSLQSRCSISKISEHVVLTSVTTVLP
# [3] = biological target: Mitogen-activated protein kinase 9 (Homo sapiens, UniProt P45984);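 also: value from a kinome panel profiling assay, MAPK9 panel entry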
# [4] = biological target: Serine/threonine-protein kinase TAO1 (Homo sapiens, UniProt Q7L7X3)
# LIM domain kinase 1 = LIM domain kinase 1 (Homo sapiens, UniProt P53667); test: Navigating the Kinome. Panel member name: LIMK1
# [5] = biological target: Dual specificity tyrosine-phosphorylation-regulated kinase 1A (Homo sapiens, UniProt Q13627);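 also: measured against DYRK1A as one member of a broad kinome profiling panel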
# [6] = biological target: Serine/threonine-protein kinase Nek2 (Homo sapiens, UniProt P51955)
# [7] = biological target: Dual specificity protein kinase CLK2 (Homo sapiens, UniProt P49760)
# [8] = biological target: Cyclin-dependent kinase 7 (Homo sapiens, UniProt P50613);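 also: value comes from a kinome-wide kinase profiling panel in which CDK7 is one member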
# [9] = biological target: Receptor-type tyrosine-protein kinase FLT3 (Homo sapiens, UniProt P36888);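 also: FLT3 was tested as one member of a kinome-wide kinase panel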
# [10] = biological target: Vascular endothelial growth factor receptor 2 (Homo sapiens, UniProt P35968)
# [11] = biological target: Serine/threonine-protein kinase Chk1 (Homo sapiens, UniProt O14757);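 also: measured as one member of a kinome-wide kinase profiling panel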
# [12] = biological target: Hepatocyte growth factor receptor (Homo sapiens, UniProt P08581);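 also: kinase panel profiling across the kinome, with MET as the panel member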
# [13] = biological target: Cyclin-dependent kinase 8 (Homo sapiens, UniProt P49336); test: Navigating the Kinome. Panel member name: CDK8
# [14] = biological target: Glycogen synthase kinase-3 alpha (Homo sapiens, UniProt P49840);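 also: GSK3A result taken from a broad kinome-wide kinase panel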
# [15] = biological target: Dual specificity protein kinase CLK4 (Homo sapiens, UniProt Q9HAZ1)
# [16] = biological target: Ribosomal protein S6 kinase alpha-3 (Homo sapiens, UniProt P51812);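 also: measured within a kinome-wide profiling panel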
# [17] = biological target: Rho-associated protein kinase 1 (Homo sapiens, UniProt Q13464);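 also: measured within a broad kinome-wide panel profiling many kinases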
# [18] = biological target: Serine/threonine-protein kinase PAK 4 (Homo sapiens, UniProt O96013);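 also: value obtained within a kinome profiling panel in which PAK4 was one of the panel members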
# [19] = biological target: Mitogen-activated protein kinase kinase kinase kinase 2 (Homo sapiens, UniProt Q12851);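 also: measured as one member of a kinome-wide kinase panel, with MAP4K2 as the panel entry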
# [20] = biological target: Macrophage-stimulating protein receptor (Homo sapiens, UniProt Q04912); test: Navigating the Kinome. Panel member name: MST1R
# [21] = biological target: High affinity nerve growth factor receptor (Homo sapiens, UniProt P04629);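 also: NTRK1 tested as one member of a kinome-wide profiling panel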
# [22] = biological target: Dual specificity tyrosine-phosphorylation-regulated kinase 1B (Homo sapiens, UniProt Q9Y463); test: Navigating the Kinome. Panel member name: DYRK1B
# [23] = biological target: BDNF/NT-3 growth factors receptor (Homo sapiens, UniProt Q16620);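 also: NTRK2 measured as one member of a broad kinome-wide kinase profiling panel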
# [24] = biological target: Leukocyte tyrosine kinase receptor (Homo sapiens, UniProt P29376); test: Navigating the Kinome. Panel member name: LTK
# LIM domain kinase 1, sequence (P53667 whole entry, the tested form may be a part): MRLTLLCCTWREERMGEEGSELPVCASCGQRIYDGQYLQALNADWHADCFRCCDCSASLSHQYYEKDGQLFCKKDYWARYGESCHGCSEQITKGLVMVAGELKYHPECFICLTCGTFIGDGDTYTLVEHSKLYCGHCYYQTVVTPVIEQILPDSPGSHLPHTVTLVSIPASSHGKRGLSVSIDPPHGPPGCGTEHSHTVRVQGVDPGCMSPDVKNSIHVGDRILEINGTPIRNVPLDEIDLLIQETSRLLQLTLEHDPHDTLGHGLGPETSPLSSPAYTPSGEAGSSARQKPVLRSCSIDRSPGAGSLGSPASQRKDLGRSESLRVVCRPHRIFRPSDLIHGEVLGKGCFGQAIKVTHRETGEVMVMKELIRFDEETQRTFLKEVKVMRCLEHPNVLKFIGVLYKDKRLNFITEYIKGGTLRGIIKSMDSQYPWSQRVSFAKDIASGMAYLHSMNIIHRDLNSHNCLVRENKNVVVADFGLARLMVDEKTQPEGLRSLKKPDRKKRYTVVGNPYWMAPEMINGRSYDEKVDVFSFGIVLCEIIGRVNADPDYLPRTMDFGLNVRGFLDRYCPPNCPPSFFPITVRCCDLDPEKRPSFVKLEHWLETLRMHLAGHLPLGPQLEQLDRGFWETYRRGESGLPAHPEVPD
# Vascular endothelial growth factor receptor 2, sequence (P35968 whole entry): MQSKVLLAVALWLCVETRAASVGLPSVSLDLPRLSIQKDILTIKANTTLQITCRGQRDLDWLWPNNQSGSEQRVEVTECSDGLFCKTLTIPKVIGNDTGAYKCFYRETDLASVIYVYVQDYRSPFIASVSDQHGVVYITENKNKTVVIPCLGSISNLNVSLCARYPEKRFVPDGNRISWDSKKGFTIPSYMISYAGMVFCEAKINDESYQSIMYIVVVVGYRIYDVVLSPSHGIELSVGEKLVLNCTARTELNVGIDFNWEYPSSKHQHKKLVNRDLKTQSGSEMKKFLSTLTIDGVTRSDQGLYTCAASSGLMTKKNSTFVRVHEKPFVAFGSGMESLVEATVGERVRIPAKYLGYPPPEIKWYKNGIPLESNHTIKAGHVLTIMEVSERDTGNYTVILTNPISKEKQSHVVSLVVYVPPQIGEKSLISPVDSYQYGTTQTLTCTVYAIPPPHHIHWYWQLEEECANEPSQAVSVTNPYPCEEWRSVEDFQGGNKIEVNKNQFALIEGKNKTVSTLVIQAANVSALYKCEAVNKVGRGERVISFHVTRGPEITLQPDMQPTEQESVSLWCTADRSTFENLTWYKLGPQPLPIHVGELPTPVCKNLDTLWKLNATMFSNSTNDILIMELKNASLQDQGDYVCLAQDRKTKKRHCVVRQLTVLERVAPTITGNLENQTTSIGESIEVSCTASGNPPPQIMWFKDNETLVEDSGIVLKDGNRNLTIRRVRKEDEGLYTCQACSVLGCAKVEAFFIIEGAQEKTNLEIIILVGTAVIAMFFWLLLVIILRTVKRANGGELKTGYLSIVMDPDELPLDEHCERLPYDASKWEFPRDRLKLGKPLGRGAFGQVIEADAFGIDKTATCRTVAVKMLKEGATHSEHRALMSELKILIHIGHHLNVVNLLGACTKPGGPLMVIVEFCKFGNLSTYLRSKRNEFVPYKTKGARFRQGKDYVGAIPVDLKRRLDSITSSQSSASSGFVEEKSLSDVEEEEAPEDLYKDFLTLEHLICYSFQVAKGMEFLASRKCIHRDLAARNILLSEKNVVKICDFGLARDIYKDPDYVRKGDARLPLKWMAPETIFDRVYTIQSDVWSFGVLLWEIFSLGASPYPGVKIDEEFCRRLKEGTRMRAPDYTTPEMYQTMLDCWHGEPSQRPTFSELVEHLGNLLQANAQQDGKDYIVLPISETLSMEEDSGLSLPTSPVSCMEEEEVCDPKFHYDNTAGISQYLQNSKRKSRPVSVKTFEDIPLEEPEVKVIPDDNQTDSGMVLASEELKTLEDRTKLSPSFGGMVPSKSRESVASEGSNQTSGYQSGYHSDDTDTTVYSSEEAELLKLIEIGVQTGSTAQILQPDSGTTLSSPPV
# Serine/threonine-protein kinase TAO1, sequence (Q7L7X3 whole entry, the tested form may be a part): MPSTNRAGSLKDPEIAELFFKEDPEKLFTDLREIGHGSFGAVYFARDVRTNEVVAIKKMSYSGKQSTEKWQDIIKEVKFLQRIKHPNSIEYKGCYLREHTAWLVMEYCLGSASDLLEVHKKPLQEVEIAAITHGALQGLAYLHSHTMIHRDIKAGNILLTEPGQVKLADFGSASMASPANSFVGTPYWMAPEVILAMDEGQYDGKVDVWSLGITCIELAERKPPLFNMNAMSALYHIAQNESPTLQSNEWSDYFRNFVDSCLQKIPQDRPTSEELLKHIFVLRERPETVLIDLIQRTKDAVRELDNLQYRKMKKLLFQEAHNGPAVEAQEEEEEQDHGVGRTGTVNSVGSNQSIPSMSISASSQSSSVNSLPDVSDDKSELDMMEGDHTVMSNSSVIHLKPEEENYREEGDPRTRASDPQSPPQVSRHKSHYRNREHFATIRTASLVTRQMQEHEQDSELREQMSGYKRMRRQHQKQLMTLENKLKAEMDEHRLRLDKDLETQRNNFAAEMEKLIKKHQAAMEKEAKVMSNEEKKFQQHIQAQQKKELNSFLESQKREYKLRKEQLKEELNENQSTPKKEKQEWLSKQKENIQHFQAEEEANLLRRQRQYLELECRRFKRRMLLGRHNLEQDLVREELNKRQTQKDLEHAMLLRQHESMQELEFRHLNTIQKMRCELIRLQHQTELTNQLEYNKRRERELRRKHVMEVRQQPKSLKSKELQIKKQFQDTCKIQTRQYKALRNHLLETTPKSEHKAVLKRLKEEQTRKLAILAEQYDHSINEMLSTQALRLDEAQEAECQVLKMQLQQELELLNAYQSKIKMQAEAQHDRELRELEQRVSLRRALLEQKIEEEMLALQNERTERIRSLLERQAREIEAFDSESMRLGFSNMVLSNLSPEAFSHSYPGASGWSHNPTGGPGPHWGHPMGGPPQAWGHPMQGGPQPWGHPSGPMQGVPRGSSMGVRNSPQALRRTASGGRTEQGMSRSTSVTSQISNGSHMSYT
# Rho-associated protein kinase 1, sequence (Q13464 whole entry): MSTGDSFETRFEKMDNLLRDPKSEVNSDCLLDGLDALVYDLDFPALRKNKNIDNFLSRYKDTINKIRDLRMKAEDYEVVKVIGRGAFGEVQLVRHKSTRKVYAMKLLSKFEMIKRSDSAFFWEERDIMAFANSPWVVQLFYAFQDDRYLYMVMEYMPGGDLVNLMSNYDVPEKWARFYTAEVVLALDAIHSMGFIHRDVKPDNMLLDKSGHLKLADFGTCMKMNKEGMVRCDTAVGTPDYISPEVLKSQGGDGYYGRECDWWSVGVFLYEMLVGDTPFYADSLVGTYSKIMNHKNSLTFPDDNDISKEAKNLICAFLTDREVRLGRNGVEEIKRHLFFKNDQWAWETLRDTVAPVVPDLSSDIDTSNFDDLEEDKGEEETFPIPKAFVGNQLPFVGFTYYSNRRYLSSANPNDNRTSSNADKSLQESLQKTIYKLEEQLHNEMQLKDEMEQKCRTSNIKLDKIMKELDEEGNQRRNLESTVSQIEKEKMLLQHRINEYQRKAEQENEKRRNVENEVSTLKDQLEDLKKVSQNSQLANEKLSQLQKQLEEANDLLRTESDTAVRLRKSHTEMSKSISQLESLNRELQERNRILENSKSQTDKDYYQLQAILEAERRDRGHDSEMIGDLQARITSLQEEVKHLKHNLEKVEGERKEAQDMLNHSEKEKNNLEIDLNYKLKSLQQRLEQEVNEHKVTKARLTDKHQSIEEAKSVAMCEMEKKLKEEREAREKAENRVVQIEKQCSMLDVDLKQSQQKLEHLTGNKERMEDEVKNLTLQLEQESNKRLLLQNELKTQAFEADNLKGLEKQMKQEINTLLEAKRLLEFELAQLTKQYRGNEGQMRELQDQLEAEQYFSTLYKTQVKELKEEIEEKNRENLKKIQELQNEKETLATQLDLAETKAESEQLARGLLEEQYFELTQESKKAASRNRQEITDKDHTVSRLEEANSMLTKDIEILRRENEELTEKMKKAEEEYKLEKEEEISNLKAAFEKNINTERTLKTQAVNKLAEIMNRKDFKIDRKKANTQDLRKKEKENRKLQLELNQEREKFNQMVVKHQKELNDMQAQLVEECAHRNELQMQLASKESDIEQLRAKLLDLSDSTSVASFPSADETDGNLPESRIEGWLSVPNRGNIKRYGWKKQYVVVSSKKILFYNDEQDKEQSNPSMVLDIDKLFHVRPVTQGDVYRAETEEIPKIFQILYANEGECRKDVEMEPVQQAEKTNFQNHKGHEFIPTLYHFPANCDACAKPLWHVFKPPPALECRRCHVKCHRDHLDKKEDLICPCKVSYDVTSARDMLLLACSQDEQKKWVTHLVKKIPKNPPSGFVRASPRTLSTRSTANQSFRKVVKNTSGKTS
# Serine/threonine-protein kinase PAK 4, sequence (O96013 whole entry): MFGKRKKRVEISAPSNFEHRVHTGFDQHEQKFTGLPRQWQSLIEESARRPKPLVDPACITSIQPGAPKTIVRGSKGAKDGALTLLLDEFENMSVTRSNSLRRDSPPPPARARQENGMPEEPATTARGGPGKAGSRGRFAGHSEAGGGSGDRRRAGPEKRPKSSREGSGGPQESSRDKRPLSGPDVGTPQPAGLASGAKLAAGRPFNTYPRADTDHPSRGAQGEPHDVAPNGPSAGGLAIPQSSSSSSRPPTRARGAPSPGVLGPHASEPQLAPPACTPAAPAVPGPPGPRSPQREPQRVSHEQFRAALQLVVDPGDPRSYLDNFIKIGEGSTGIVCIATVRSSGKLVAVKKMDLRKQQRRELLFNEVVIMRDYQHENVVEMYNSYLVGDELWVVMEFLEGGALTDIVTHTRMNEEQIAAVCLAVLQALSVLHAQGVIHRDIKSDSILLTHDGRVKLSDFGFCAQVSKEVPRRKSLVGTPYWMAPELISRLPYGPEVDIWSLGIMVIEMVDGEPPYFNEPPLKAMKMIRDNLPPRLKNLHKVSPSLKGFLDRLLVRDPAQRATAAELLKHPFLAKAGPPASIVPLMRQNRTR
compound,measurement,setting,value
Cc1ccnc2ccc(-c3nc4ccccc4o3)cc12,IC50,[1],71 µM (active)
same,IC50,[2],4.26 µM (active)
O=C(NCCc1cccs1)N1CC=C(c2c[nH]c3ncccc23)CC1,Ki,[3],> 3.98 µM (inactive)
same,Ki,[4],> 6.31 µM (inactive)
same,Ki,LIM domain kinase 1,> 3.16 µM (inactive)
same,Ki,[5],0.126 µM (active)
same,Ki,[6],> 3.16 µM (inactive)
same,Ki,[7],0.501 µM (active)
same,Ki,[8],1 µM (active)
same,Ki,[9],> 3.16 µM (inactive)
same,Ki,[10],2 µM (active)
same,Ki,[11],2 µM (active)
same,Ki,[12],> 2.51 µM (inactive)
same,Ki,[13],0.0794 µM (active)
same,Ki,[14],> 3.98 µM (inactive)
same,Ki,[15],0.0158 µM (active)
same,Ki,[16],> 3.98 µM (inactive)
same,Ki,[17],0.0631 µM (active)
same,Ki,[18],> 5.01 µM (inactive)
same,Ki,[19],> 2.51 µM (inactive)
same,Ki,[20],2.51 µM (active)
same,Ki,[21],> 3.16 µM (inactive)
same,Ki,[22],0.0398 µM (active)
same,Ki,[23],> 3.98 µM (inactive)
same,Ki,[24],> 2.51 µM (inactive)
